Assay results as given in patent publication US6352998B2, “Pharmaceutical compositions” (Novartis AG, priority 1997, dated 2002).

Test system: chronic plaque psoriasis
Test: Topical treatment of chronic plaque psoriasis in humans, once a day
Assay type: in vivo
Settings: topical application of 0.01 to 1% w/w once a day

Row | Compound | Efficacy in the treatment of chronic plaque psoriasis
1 | CC[C@@H]1/C=C(\C)C[C@H](C)C[C@H](OC)[C@H]2O[C@@](O)(C(=O)C(=O)N3CCCC[C@H]3C(=O)O[C@H](/C(C)=C/[C@@H]3CC[C@@H](O)[C@H](OC)C3)[C@H](C)[C@@H](O)CC1=O)[C@H](C)C[C@@H]2OC (relative stereo) [Compound 3, [3S-[3R*[E(1S*,3S*,4S*)],4S*,5R*,8S*,9E,12R*,14R*,15S*,16R*,18S*,-19S*,26aR*]]-5,6,8,11,12,13,14,15,16,17,18,19,24,25,26,26a-hexadecahydro-5,19-dihydroxy-3-[2-(4-hydroxy-3-methoxy-cyclohexyl)-1-methylethenyl)]-14,16-dimethoxy4,10,12,18,-tetramethyl-8-ethyl-15,19-epoxy-3H-pyrido[2,1-c][1,4]oxaazacyclotricosine-1,7,20,21(4H,23H)-tetrone] | effective
2 | [3S-[3R*[E(1S*,3S*,4S*)],4S*,5R*,8S*,9E,12R*,-14R*,15S*,16R*,18S*,19S*,26aR*]]-5,6,8,11,12,13,14,15,16,17,18,19,24,25,26,26a-hexadecahydro-5,19-dihydroxy-3-(3-hydroxymethylcyclopentyl)-1-methylethenyl)]-14,16-dimethoxy-4,10,12,18,-tetramethyl-8-ethyl-15,19-epoxy-3H-pyrido[2,1-c][1,4]oxaazacyclotricosine-1,7,20,21(4H,23H)-tetrone [Compound 2] | effective
